Where “and” joins values, the source holds several entries; their conditions need not be identical. Equal values may be shown once. [invdT] = inverted (3'-3') thymidine; d = 2'-deoxy (DNA); m = 2'-O-methyl
Tests used:
[1] = system: vWF dependent platelet plug formation, human whole blood; test: PFA-100 assay, human whole blood; type: cell-based; conditions: for ~IC95 PFA-100 (nM) with citrated human whole blood: minimum concentration that extends closing time to 300 seconds
Description: Another assay of this Example, using the PFA-100 instrument, is an agonist independent but vWF dependent assay that uses the PFA-100 instrument (Harrison et al., Clin. Lab. Haem., v24, p 225-32 (2002)). The PFA-100 simulates the formation of a hemostatic plug under conditions of high shear force in vivo by recording the time required for a platelets to aggregate and block the flow of citrated whole blood through a microscopic aperture in a membrane coated with collagen and either epinephrine or ADP. This activity is von Willebrand factor dependent as high MW vWF multimers bind to immobilized collagen on the membrane and then bind to and activate platelets because of the shear force induced by drawing the blood through the microscopic aperture.
Fresh whole blood was collected from healthy non-steroidal anti-inflammatory drug (NSAID) free cynomolgus macaques. Aptamers were diluted with physiological saline from Aldon (Cat#9420306) in no-additive vacutainer tubes (Cat#366434, Becton Dickenson). Samples were loaded onto collagen/epinephrine test cartridges (Cat#B4170-20A, Dade Behring) which were used in the PFA-100 machine (Dade Behring). Trigger solution (Cat#B4170-50, Dade Behring) was used in the self-test and to pre-wet the test cartridges. O-ring cleaning pads (Cat#B4170-73, Dade Behring) were used in the self-test and in the O-ring cleaning process.
A self-test, which included an O-ring cleaning process, was always run on the PFA-100 machine before running any samples to ensure proper function of the machine.
During the entire experiment, the tubes of whole blood were gently inverted every five minutes to prevent settling.
In order to assay the titration of aptamer in whole blood, the aptamer was added to no-additive vacutainer tubes and diluted to the desired concentrations (ex: 0 nM, 1 nM to 1000 nM) using physiological saline such that the final volume was […]. When the PFA-100 was ready to run the next set of samples, 1940 μl of whole blood was added to the tube containing a concentration of aptamer. This tube was gently inverted three times to thoroughly mix the aptamer and blood. Samples were always run in duplicate on the PFA-100 machine. 800 μl of this blood mixture was loaded into the collagen/epinephrine test cartridges. The test cartridges were loaded onto the PFA-100 machine. The time of occlusion of the aperture was measured by the PFA-100, with a maximal time of 300 seconds. We estimate the IC95 in this assay to be the minimum concentration of aptamer that extends the closing time to 300 seconds.

[2] = pharmacokinetics after 3 mg/kg IV in cynomolgus macaques (Oligreen, HPLC); type: in vivo
Description: ARC1368 (SEQ ID NO 291), 1779 (SEQ ID NO 320) and 1780 (SEQ ID NO 321) (as described in Example 2 above) were injected intravenously into cynomolgus macaques (n=3/group) at a dosage of 3 mg/kg which was expected to yield an instantaneous plasma concentration of 3 uM, approximately 30-fold higher than the putative effective dose. Subsequently, citrated blood samples were collected at regular intervals and processed for plasma.
Subsequently, plasma aptamer concentrations were determined using the Oligreen assay (Gray et al., Antisense and Nucleic Acid Drug Development 7 (3):133-140 (1997). The data were subsequently analyzed using the program WinNonlin to yield the pharmacokinetic parameters listed in Tables 29 to 31 below.
Following the Oligreen assay analysis, plasma aptamer concentrations were determined for the animals dosed with ARC1779 (SEQ ID NO 320) using a validated HPLC-based assay. The HPLC data were analyzed via noncompartmental and 2-compartment analysis using the program WinNonlin.

[3] = system: intra-arterial thrombosis of carotid arteries; test: cynomolgus macaque electrolytic thrombosis model; type: in vivo, cynomolgus monkeys
Description: A study was performed to test the efficacy of ARC1779 (SEQ ID NO 320) in inhibiting intra-arterial thrombosis in a well documented non-human primate electrolytic thrombosis model. See, e.g., Rote et al., Stroke, 1994: 25, 1223-1233.
Each animal was anesthetized prior to surgical preparation, intubated and maintained in anesthesia with isoflurane inhalant anesthetic to effect delivered through a volume-regulated respirator. An intravenous catheter was also placed in a peripheral vein for administration of lactated Ringer's solution during the procedure.
A catheter was placed in the femoral artery of each animal for continuous monitoring of arterial blood pressure. Similarly a catheter was placed in the femoral vein for blood sample collection. Each carotid artery was instrumented with a Doppler flow probe connected to a flow meter. The flow probes were placed around the artery at a point proximal to the insertion of the intra-arterial electrode and stenosis. The stenosis was placed around each carotid artery so that the […] was reduced by approximately 50% to 60% without altering the mean […]. Blood flow in the carotid arteries was monitored and recorded continuously throughout the observation periods.
Electrolytic injury to the intimal surface of each carotid artery was accomplished via placement of an intravascular electrode. Each electrode was connected to the positive pole of a constant current device and cathode connected to a distant subcutaneous site. Continuous current was delivered to each vessel for a period of 3 hours or for 30 minutes after complete occlusion, whichever was shorter.
Once the electrodes were placed on the right carotid artery (“RCA”) the animal was administered the test article as indicated in Table 32 above. Approximately 15 minutes after test article administration, the electrical current was applied at 100 μA. Blood samples and CBT measurements were collected at the time points specified in Blood Sample Collection Schedule as indicated in FIG. 31. The current was terminated ˜30 minutes after the blood flow signal remained stable at zero flow (which indicates an occlusive thrombus had been formed at the site) or after 180 minutes of electrical stimulation. Approximately 195 minutes after the test article was administered, the left carotid artery (“LCA”) had electrical current administered in a similar fashion as previously described for the RCA. After termination of all surgical procedures and sample collection each animal was euthanized.
An additional 10 cynomolgus monkeys (2.5 to 3.5 kg) were divided into treatment groups 5 to 7 and were treated according the regimen indicated in Table 33 below.
The animal procedure for each treatment group in Table 33 was conducted as reported for the animals in Example 5B.

[4] = not given; remark: listed apart in the source
[5] = system: rabbit vWF A1 domain (SEQ ID NO 6); test: dot blot KD determination, rabbit vWF A1 domain; type: binding; conditions: dot blot, 12 point protein titration, 1xDPBS plus 0.1 mg/mL BSA, room temperature, 30 minutes
rabbit vWF A1 domain (SEQ ID NO 6), sequence (as listed by the source): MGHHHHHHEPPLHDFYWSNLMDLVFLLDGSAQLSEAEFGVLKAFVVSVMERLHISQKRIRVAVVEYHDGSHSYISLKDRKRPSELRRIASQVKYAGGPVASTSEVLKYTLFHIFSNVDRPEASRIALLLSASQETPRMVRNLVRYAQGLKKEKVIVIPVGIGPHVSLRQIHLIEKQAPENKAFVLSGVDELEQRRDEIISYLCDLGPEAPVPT
Description: A 12 point protein titration was used in the dot blot assay (300 nM, 100 nM, 30 nM, 10 nM, 3 nM, 1 nM, 300 pM, 100 pM, 30 pM, 10 pM, 3 pM, 0 pM) in 1×DPBS plus 0.1 mg/mL BSA at room temperature for 30 minutes.

[6] = 3 mg/kg IV, monkeys, Oligreen assay, noncompartmental, individual animals 2101, 2103, 2104
[7] = 3 mg/kg IV, monkeys, Oligreen assay, noncompartmental, mean of 3 animals
[8] = cynomolgus monkey, in vivo, iv, 3 mg/kg

## PEG20K-NH2-mGmCmGmUdGdCdAmGmUmGmCmCmUmUmCmGmGmCdCmG-s-TmGdCdGdGTmGmCdCmUdCdCmGmUdCmAmCmGmC-3T [ARC1779]
[1]
  ~IC95 PFA-100 (nM) with citrated human whole blood: ~100 nM
[2]; 3 mg/kg IV, HPLC-based assay
  distribution half-life (t1/2α): 1.4 h
  elimination half-life (t1/2β): 12.9
[2]; 3 mg/kg IV, Oligreen assay
  distribution phase α-half-life: ~2 h
[2]; [6]
  AUClast: 309.245 µg·h/mL and 336.59 µg·h/mL and 235.503 µg·h/mL
  Cmax: 69.065 µg/mL and 65.717 µg/mL and 70.344 µg/mL
  MRTlast: 5.27 h and 4.66 h and 2.69 h
  Tmax: 0.25 hr (2×) and 0.50 hr
[2]; [7]
  AUClast, Mean: 293.779 µg·h/mL
  Cmax, Mean: 68.375 µg/mL
  MRTlast, Mean: 4.21 h
  Tmax, Mean: 0.33 h
[2]; in words, 3 mg/kg IV, HPLC method
  concentration-time profile: biphasic
[2]; in words, 3 mg/kg IV, mean concentration-time profile, OliGreen assay
  pharmacokinetic profile: mainly monophasic
[3]; in words, sequential 180-minute electrical injuries to the carotid arteries
  thrombus formation: inhibited thrombus formation
[3]; infusion targeted to constant plasma level of 300 nM
  carotid arteries that developed occlusive thrombi: 100%
[3]; infusion targeted to constant plasma level of 500 nM
  carotid arteries that developed occlusive thrombi: 63%
[3]; infusion targeted to constant plasma level of 750 nM
  carotid arteries that developed occlusive thrombi: 25%
[3]; infusion targeted to constant plasma level of 1000 nM
  carotid arteries that developed occlusive thrombi: 0%

## dGdGdCdGTdGdCdAdGTdGdCdCTTdCdGdGdCdCdGTdGdCdGdGTdGdCdCTdCdCdGTdCdAdCdGdCdC-3T (DNA GGCGTGCAGTGCCTTCGGCCGTGCGGTGCCTCCGTCACGCC; DNA, [invdT] at 3' end, backbone and methylation of C not given here) [ARC1172]
[1]
  ~IC95 PFA-100 (nM) with citrated human whole blood: ~100 nM
other
  T½ Human plasma: 17 h
[4]
  T½ Rat plasma: 3 h

## mGmCmGmUdGdCdAmGmUmGmCmCmUmUmCmGmGmCdCmG-s-TmGdCdGdGTmGmCdCmUdCdCmGmUdCmAmCmGmC-3T (GCGUGCAGUGCCUUCGGCCGTGCGGTGCCUCCGUCACGC; sugars from the 5' end mmmmdddmmmmmmmmmmmdmdmddddmmdmddmmdmmmm, [invdT] at 3' end, backbone not given here) [ARC1368]
[1]
  ~IC95 PFA-100 (nM) with citrated human whole blood: ~100 nM
[1]; in words, human whole blood
  potency in PFA-100 assay: potency comparable to ReoPrO™
[2]; [8]
  AUC0-last, Mean: 25224 ng·h/mL
  MRTlast, Mean: 4.48 h
  distribution phase: rapid distribution phase
  pharmacokinetic profile: mainly monophasic
other
  T½ Human plasma: 63 h
[4]
  T½ Rat plasma: 21 h

B1: AMX237.G6: DNA SELEX 2 aptamer clone (nucleic acid)
DNA: CTACCTACGATCTGACTAGCGTGCAGTGCCTATTCCAGGCCGTGCGGTGCCTCCGTCACGCTTACTCTCATGTAGTTCC
modifications: DNA, backbone and methylation of C not given here
notes: DNA SELEX 2 aptamer clone
[5]
  Kd: 47 nM

Source: patent publication US7998940B2, “Aptamers to von Willebrand factor and their use as thrombotic disease therapeutics” (Archemix Corp., priority 2004, dated 2011)
